The values below come from patent US4064132A, “Aroyl-substituted phenylacetamide derivatives” (Janssen Pharmaceutica N.V., priority 1976, dated 1977).

Assay [1] relates to mycobacterium butyricum induced arthritis. Briefly: mycobacterium butyricum induced arthritis test in rats. The format is in vivo, male Wistar rats. The conditions noted are these: for minimal effective dose: Rattus norvegicus, po, 336 h, 14 consecutive days; for Potency Ratio: arthritis test, compound A vs compound B. How it is done:
According to the mycobacterium butyricum induced arthritis test, male Wistar rats (body weight 235±15g) are injected intradermally in the tail base with 0.05 ml of an oily suspension of mycobacterium butyricum. The paws and the joint diameters of the hind limbs are measured the day of the injection and a fortnight later. Rats with established arthritis, i.e., significant increase in paw and joint diameters are used for drug testing. Groups of three individually caged animals receive the drug under investigation mixed with the powdered food at different concentrations during 14 consecutive days. After this treatment period, the diameters of the hind limbs are measured again and the effect of drug treatment is evaluated by comparing the final swelling degrees of treated animals with that occurring in untreated controls. The lowest effective dose is that dose whereby a significant decrease of the swelling is observed as compared to untreated control animals.

Assay [2] concerns acetic acid induced writhing. As to the kind of experiment: HOAc (acetic acid) induced writhing test in rats. The format is in vivo, female Wistar rats. The note with it: for ED50: Rattus norvegicus, po; for Potency Ratio: writhing test, compound A vs compound B. As to the method:
According to the acetic acid induced writhing test, female Wistar rats (body weight 100±5g) are fasted overnight and injected intraperitoneally with 0.5 ml of a 1% acetic acid solution. Rats with at least 10 writhes within the first 10 minutes following the acetic acid injection are selected and treated five minutes later with an oral dose of the compound under investigation or with the vehicle (control). The number of writhes, i.e. the backward extension of the hind limbs, are counted during a 15 minute experimental session 45 to 60 minutes after the oral treatment. A minimum of three rats are used for each dose level tested.
On the technique in general: An intraperitoneal irritant provokes the stretching counted in writhing tests.

Where [3] appears, read: drug in food, table 3, read-out: Mycobacterium butyricum test effective dose.
[4] abbreviates: mixed with the powdered food, significant decrease of swelling vs untreated controls, table 2, read-out: Lowest Effective Dose.
Where [5] appears, read: all-or-none basis of less than 15 writhes per animal per session, table 1, read-out: Oral ED50 (lowest effective oral dose expressed as ED50).
Where [6] appears, read: table 3, read-out: Writhing test in rats, ED50.

Read-outs that look alike come from different tables or passages of the source. Where only a bound is given, the exact number is not on record here.

Turning to `CC(C(=O)O)c1ccc(C(=O)c2cccs2)cc1` (single isomer, unassigned; (+)) [p-(2-thenoyl) (+) H H Me H OH, (+)-p-(2-thenoyl)hydratropic acid], the minimal effective dose in assay [1] (setting [3]) was ≤ 2.5 mg/kg. Moreover, the “Writhing test in rats; ED50” value in assay [2] (oral, table 3) was 0.31 mg/kg.

Take `CC(C(=O)O)c1ccc(C(=O)c2cccs2)cc1` (single isomer, unassigned; (-)) [p-(2-thenoyl) (-) H H Me H OH, (-)-p-(2-thenoyl)hydratropic acid]: the “Writhing test in rats; ED50” value in assay [2] (oral, table 3) came to 5.0 mg/kg.

As for `CC(C(=O)O)c1ccc(C(=O)c2cccs2)cc1` (stereo not drawn) [A, p-(2-thenoyl)-α-methyl-phenylacetic acid], in assay [1], the “antagonism of mycobacterium butyricum induced arthritis in rats (in words)” value is “powerful antagonist of mycobacterium butyricum induced arthritis in rats”. For the same molecule, in assay [1] (setting [4]), the minimal effective dose is 0.63 mg/kg. The “Potency Ratio” value in assay [1] (table 2) and in assay [2] (table 1) was 1 each time. In assay [1] (drug in food, 14 days), the “times more active than compound B (arthritis)” value was “at least 16 times”. In addition, the ED50 in assay [2] (setting [5]) is 0.08 mg/kg. The “times more active than compound B (writhing)” value in assay [2] (oral) was determined as 16 times.

As for `CC(C(=O)O)c1ccc(C(=O)c2ccccc2)cc1` (stereo not drawn) [B, p-benzoyl-α-methylphenylacetic acid, reference compound], the minimal effective dose in assay [1] (setting [4]) came to 10 mg/kg. The “Potency Ratio” value in assay [1] (table 2) and in assay [2] (table 1) was 1/16 throughout. Also, the ED50 in assay [2] (setting [5]) amounted to 1.25 mg/kg.

Turning to `CC(C(=O)O)c1cccc(C(=O)c2cccs2)c1` (centres unmarked) [m-(2-thenoyl) H H Me H OH, m-(2-thenoyl)hydratropic acid], in assay [2] (setting [6]), the ED50 was 1.25 mg/kg.

Regarding `Cc1c(CC(=O)O)cccc1C(=O)c1cccs1` [m-(2-thenoyl) H Me H H OH, 2-[3-(2-thenoyl)-o-tolyl]acetic acid], the minimal effective dose in assay [1] (setting [3]) amounted to 1.25 mg/kg. In addition, the ED50 in assay [2] (setting [6]) amounted to 10 mg/kg.

As to `CC(C(=O)O)c1ccc(C(=O)c2ccc3ccccc3c2)cc1` (centres unmarked) [p-(2-naphtoyl) H H Me H OH, p-(2-naphthoyl)hydratropic acid], in assay [1] (setting [3]), the minimal effective dose was 10 mg/kg. Moreover, in assay [2] (setting [6]), the ED50 turned out to be 1.25 mg/kg.

Regarding `CC(C(=O)O)c1ccc(C(=O)c2cccs2)c(Cl)c1` (centres unmarked) [p-(2-thenoyl) Cl H Me H OH, 3-chloro-4-(2-thenoyl)hydratropic acid], in assay [1] (setting [3]), the minimal effective dose turned out to be 1.25 mg/kg. Also, the ED50 in assay [2] (setting [6]) was found to be 1.25 mg/kg.

For the molecule `CCC(C(=O)O)c1ccc(C(=O)c2cccs2)cc1` (centres unmarked) [p-(2-thenoyl) H H Et H OH, 2-[p-(2-thenoyl)phenyl]butyric acid], in assay [2] (setting [6]), the ED50 worked out at 0.63 mg/kg.

As for `CC(C(=O)NO)c1ccc(C(=O)c2cccs2)cc1` (centres unmarked) [p-(2-thenoyl) H H Me H NHOH, p-(2-thenoyl)hydratropohydroxamic acid], in assay [2] (setting [6]), the ED50 amounted to 1.25 mg/kg.

For the molecule `CCN(CC)CCOC(=O)C(C)c1ccc(C(=O)c2cccs2)cc1.Cl` (centres unmarked) [p-(2-thenoyl) H H Me H O(CH2)2N(Et)2, 2-(diethylamino)ethyl p-(2-thenoyl)hydratropate hydrochloride], the minimal effective dose in assay [1] (setting [3]) was 2.5 mg/kg. The ED50 in assay [2] (setting [6]) worked out at 0.04 mg/kg.

Take `CC(C(=O)OCCN(C)C)c1ccc(C(=O)c2cccs2)cc1.O=C(O)C(=O)O` (centres unmarked) [p-(2-thenoyl) H H Me H O(CH2)2N(Me)2, 2-(dimethylamino)ethyl p-(2-thenoyl)hydratropate oxalate]: in assay [1] (setting [3]), the minimal effective dose came to 2.5 mg/kg. For the same molecule, the ED50 in assay [2] (setting [6]) came to 0.08 mg/kg.

Take `CC(C(=O)OCCCN(C)C)c1ccc(C(=O)c2cccs2)cc1.O=C(O)C(=O)O` (centres unmarked) [p-(2-thenoyl) H H Me H O(CH2)3N(Me)2, 3-(dimethylamino)propylp-(2-thenoyl)hydratropate oxalate]: the minimal effective dose in assay [1] (setting [3]) was 2.5 mg/kg. The ED50 in assay [2] (setting [6]) is 0.16 mg/kg.

As for `CCOC(=O)C(C)c1ccc(C(=O)c2cccs2)cc1` (centres unmarked) [p-(2-thenoyl) H H Me H OEt, ethyl p-(2-thenoyl)hydratropate], the ED50 in assay [2] (setting [6]) came to 0.31 mg/kg.

As to `CCCCCCCCOC(=O)C(C)c1ccc(C(=O)c2cccs2)cc1` (centres unmarked) [p-(2-thenoyl) H H Me H OOct, octyl p-(2-thenoyl)hydratropate], the ED50 in assay [2] (setting [6]) amounted to 0.63 mg/kg.

Consider `COc1ccc(NC(=O)C(C)c2ccc(C(=O)c3cccs3)cc2)cc1` (centres unmarked) [p-(2-thenoyl) H H Me H drawing 30], for which the minimal effective dose in assay [1] (setting [3]) was < 10 mg/kg. For the same molecule, the ED50 in assay [2] (setting [6]) was found to be 10 mg/kg.

For `CC(C(=O)NC1=NCCS1)c1ccc(C(=O)c2cccs2)cc1` (centres unmarked) [p-(2-thenoyl) H H Me H drawing 31], the minimal effective dose in assay [1] (setting [3]) is 10 mg/kg. In addition, the ED50 in assay [2] (setting [6]) was determined as 2.5 mg/kg.

`CC(C)(C(=O)O)c1ccc(C(=O)c2cccs2)cc1` [p-(2-thenoyl) H H Me Me OH, α-methyl-p-(2-thenoyl)hydratropic acid]: the minimal effective dose in assay [1] (setting [3]) is < 10 mg/kg. In addition, the ED50 in assay [2] (setting [6]) is 0.31 mg/kg.

For `C=CCC(C(=O)O)c1ccc(C(=O)c2cccs2)cc1` (centres unmarked) [p-(2-thenoyl) H H allyl H OH, 2-[p-(2-thenoyl)phenyl]-4-pentenoic acid], the minimal effective dose in assay [1] (setting [3]) was 10 mg/kg. The ED50 in assay [2] (setting [6]) amounted to 1.25 mg/kg.

On to `Cc1cc(C(C)C(=O)O)ccc1C(=O)c1cccs1` (centres unmarked) [p-(2-thenoyl) Me H Me H OH, 3-methyl-4-(2-thenoyl)hydratropic acid], for which the minimal effective dose in assay [1] (setting [3]) was determined as 10 mg/kg. Further, the ED50 in assay [2] (setting [6]) came to 5 mg/kg.

Consider `CC(C(=O)O)c1ccc(C(=O)c2cccnc2)cc1.Cl` (centres unmarked) [p-(3-pyridylcarbonyl) H H Me H OH, p-(3-pyridylcarbonyl)hydratropic acid hydrochloride], for which the minimal effective dose in assay [1] (setting [3]) turned out to be 2.5 mg/kg. For the same molecule, in assay [2] (setting [6]), the ED50 was found to be 2.5 mg/kg.

For the molecule `Cc1ccc(C(=O)c2ccc(C(C)C(=O)O)cc2)s1` (centres unmarked) [p-(5-Me-2-thenoyl) H H Me H OH, p-(5-methyl-2-thenoyl)hydratropic acid], the minimal effective dose in assay [1] (setting [3]) stood at 5 mg/kg. Also, the ED50 in assay [2] (setting [6]) amounted to 1.25 mg/kg.

Consider `CC(C(=O)O)c1ccc(C(=O)c2ccc(Cl)s2)cc1` (centres unmarked) [p-(5-chloro-2-thenoyl) H H Me H OH, p-(5-chloro-2-thenoyl)hydratropic acid], for which the minimal effective dose in assay [1] (setting [3]) was determined as 5 mg/kg. Besides, the ED50 in assay [2] (setting [6]) amounted to 0.63 mg/kg.
